Test results taken from patent publication US20210322582A1, “RADIOACTIVE IMIDAZOTHIADIAZOLE DERIVATIVE COMPOUND” (Nihon Medi-Physics Co., Ltd., priority 2018, published 2021).
Where “and” joins values, the source holds several entries; their conditions need not be identical. Identical values can stand only once.

System: HT-29-transplanted tumor
Test: Biodistribution of [^111In]ITDA1 in HT-29 cancer-bearing mouse
Assay type: in vivo
Conditions: for Accumulation of radioactivity: Blood / Accumulation of radioactivity: Brain / Accumulation of radioactivity: Heart / Accumulation of radioactivity: Intestines / Accumulation of radioactivity: Kidney / Accumulation of radioactivity: Liver / Accumulation of radioactivity: Lungs / Accumulation of radioactivity: Muscle / Accumulation of radioactivity: Pancreas / Accumulation of radioactivity: Spleen / Accumulation of radioactivity: Stomach / Accumulation of radioactivity: Tumor (HT-29) / Tumor/blood / Tumor/muscle: HT-29 mouse
Experimental: HT-29 cells (5×10^6 cells/mouse) were subcutaneously inoculated into the left shoulder of each of 5-week old male BALB/c nude mice (purchased from Shimizu Laboratory Supplies Co., Ltd., the same applies to the following Examples). A saline solution (100 μL) in which [^111In]ITDA1 (37 kBq) had been dissolved was administered to each of the HT-29 cancer-bearing mice (n=5) via the tail vein. The mice were slaughtered after the lapse of 1, 4, 8, and 24 hours from the administration, and the blood, spleen, pancreas, stomach, intestines, kidney, liver, heart, lungs, brain, HT-29-transplanted tumor, and muscle were recovered. The weight of each organ was measured, and the amount of radioactivity in each organ was measured by using a gamma counter. The accumulation of radioactivity in each organ was expressed by % ID (injected dose)/g obtained by dividing the ratio of the amount of radioactivity of each organ to the administered amount of radioactivity by the organ weight.

Accumulation of radioactivity: Blood (1 h after administration): 0.27 ± 0.03 % ID/tissue weight (g)
Accumulation of radioactivity: Brain (1 h after administration): 0.30 ± 0.02 % ID/tissue weight (g)
Accumulation of radioactivity: Heart (1 h after administration): 7.58 ± 1.20 % ID/tissue weight (g)
Accumulation of radioactivity: Intestines (1 h after administration): 10.86 ± 1.27 % ID/tissue weight (g)
Accumulation of radioactivity: Kidney (1 h after administration): 111.20 ± 12.39 % ID/tissue weight (g)
Accumulation of radioactivity: Liver (1 h after administration): 3.59 ± 0.98 % ID/tissue weight (g)
Accumulation of radioactivity: Lungs (1 h after administration): 13.49 ± 5.52 % ID/tissue weight (g)
Accumulation of radioactivity: Muscle (1 h after administration): 5.44 ± 1.59 % ID/tissue weight (g)
Accumulation of radioactivity: Pancreas (1 h after administration): 31.32 ± 5.29 % ID/tissue weight (g)
Accumulation of radioactivity: Spleen (1 h after administration): 0.33 ± 0.10 % ID/tissue weight (g)
Accumulation of radioactivity: Stomach (1 h after administration): 2.59 ± 0.69 % ID
Accumulation of radioactivity: Tumor (HT-29) (1 h after administration): 3.81 ± 0.79 % ID/tissue weight (g)
Tumor/blood (1 h after administration): 14.41 ± 3.35
Tumor/muscle (1 h after administration): 0.74 ± 0.25
Accumulation of radioactivity: Blood (4 h after administration): 0.25 ± 0.18 % ID/tissue weight (g)
Accumulation of radioactivity: Brain (4 h after administration): 0.35 ± 0.05 % ID/tissue weight (g)
Accumulation of radioactivity: Heart (4 h after administration): 3.49 ± 0.74 % ID/tissue weight (g)
Accumulation of radioactivity: Intestines (4 h after administration): 14.20 ± 1.28 % ID/tissue weight (g)
Accumulation of radioactivity: Kidney (4 h after administration): 115.12 ± 8.70 % ID/tissue weight (g)
Accumulation of radioactivity: Liver (4 h after administration): 3.86 ± 0.92 % ID/tissue weight (g)
Accumulation of radioactivity: Lungs (4 h after administration): 5.09 ± 1.69 % ID/tissue weight (g)
Accumulation of radioactivity: Muscle (4 h after administration): 2.69 ± 0.76 % ID/tissue weight (g)
Accumulation of radioactivity: Pancreas (4 h after administration): 18.81 ± 2.04 % ID/tissue weight (g)
Accumulation of radioactivity: Spleen (4 h after administration): 0.31 ± 0.12 % ID/tissue weight (g)
Accumulation of radioactivity: Stomach (4 h after administration): 5.22 ± 0.79 % ID
Accumulation of radioactivity: Tumor (HT-29) (4 h after administration): 4.20 ± 0.68 % ID/tissue weight (g)
Tumor/blood (4 h after administration): 21.70 ± 8.65
Tumor/muscle (4 h after administration): 1.62 ± 0.33
Accumulation of radioactivity: Blood (8 h after administration): 0.18 ± 0.02 % ID/tissue weight (g)
Accumulation of radioactivity: Brain (8 h after administration): 0.41 ± 0.05 % ID/tissue weight (g)
Accumulation of radioactivity: Heart (8 h after administration): 2.16 ± 0.31 % ID/tissue weight (g)
Accumulation of radioactivity: Intestines (8 h after administration): 14.99 ± 1.27 % ID/tissue weight (g)
Accumulation of radioactivity: Kidney (8 h after administration): 83.81 ± 7.88 % ID/tissue weight (g)
Accumulation of radioactivity: Liver (8 h after administration): 3.15 ± 0.78 % ID/tissue weight (g)
Accumulation of radioactivity: Lungs (8 h after administration): 3.54 ± 1.19 % ID/tissue weight (g)
Accumulation of radioactivity: Muscle (8 h after administration): 1.75 ± 0.37 % ID/tissue weight (g)
Accumulation of radioactivity: Pancreas (8 h after administration): 9.80 ± 2.34 % ID/tissue weight (g)
Accumulation of radioactivity: Spleen (8 h after administration): 0.21 ± 0.05 % ID/tissue weight (g)
Accumulation of radioactivity: Stomach (8 h after administration): 6.09 ± 0.82 % ID
Accumulation of radioactivity: Tumor (HT-29) (8 h after administration): 5.16 ± 0.62 % ID/tissue weight (g)
Tumor/blood (8 h after administration): 29.14 ± 5.15
Tumor/muscle (8 h after administration): 3.03 ± 0.66
Accumulation of radioactivity: Blood (24 h after administration): 0.16 ± 0.02 % ID/tissue weight (g)
Accumulation of radioactivity: Brain (24 h after administration): 0.48 ± 0.03 % ID/tissue weight (g)
Accumulation of radioactivity: Heart (24 h after administration): 1.56 ± 0.30 % ID/tissue weight (g)
Accumulation of radioactivity: Intestines (24 h after administration): 17.99 ± 1.59 % ID/tissue weight (g)
Accumulation of radioactivity: Kidney (24 h after administration): 65.13 ± 7.13 % ID/tissue weight (g)
Accumulation of radioactivity: Liver (24 h after administration): 2.21 ± 0.34 % ID/tissue weight (g)
Accumulation of radioactivity: Lungs (24 h after administration): 2.06 ± 0.66 % ID/tissue weight (g)
Accumulation of radioactivity: Muscle (24 h after administration): 1.43 ± 0.53 % ID/tissue weight (g)
Accumulation of radioactivity: Pancreas (24 h after administration): 8.13 ± 0.91 % ID/tissue weight (g)
Accumulation of radioactivity: Spleen (24 h after administration): 0.42 ± 0.18 % ID/tissue weight (g)
Accumulation of radioactivity: Stomach (24 h after administration): 8.74 ± 0.46 % ID
Accumulation of radioactivity: Tumor (HT-29) (24 h after administration): 8.71 ± 1.41 % ID/tissue weight (g)
Tumor/blood (24 h after administration): 53.56 and 53.56 ± 5.53
Tumor/muscle (24 h after administration): 6.59 and 6.59 ± 2.18
Accumulation in the HT-29-transplanted tumor (one hour after administration): 3.81 % ID/g
SMILES: NS(=O)(=O)c1nn2cc(-c3ccc(NC(=O)CN4CCN(CC(=O)O)CCN(CC(=O)O)CCN(CC(=O)O)CC4)cc3)nc2s1.[111In+3] [[^111In]ITDA1, [^111In]indium(III)2,2′,2″-(10-(2-oxo-2-((4-(2-sulfamoylimidazo[2,1-b][1,3,4]thiadiazol-6-yl)phenyl)amino)ethyl)-1,4,7,10-tetraazacyclododecan-1,4,7-triyl) triacetic acid]
